{"source": "patent US10940216B2", "about": "“Cyclic peptides with enhanced nerve-binding selectively, nanoparticles bound with said cyclic peptides, and use of same for real-time in vivo nerve tissue imaging” (Memorial Sloan Kettering Cancer Center, priority 2014, dated 2021)", "key": {"[1]": {"test": "Characterization of NBP-Cy5 conjugates and linear NBP-C′ dots by fluorescence correlation spectroscopy (FCS)", "format": "physicochemical", "description": "Similarly, cyclic peptide(s) can be bound to nanoparticles for improved quantum enhancement and FCS brightness over the non-bound cyclic peptide.\nMeasurements were determined from fluorescence correlation spectroscopy (FCS).\nThe linear nerve binding polypeptide (NBP) NP41 was incorporated onto C′ dots using a PEG linker moiety."}, "[2]": {"test_system": "sciatic nerve", "test": "In vivo optical imaging of sciatic nerve and adjacent muscle after iv injection of peptide-dye conjugates", "settings": "nude mouse; for fluorescence signal at 30 min as percentage of post-injection/initial signal: 150 nmole iv", "description": "FIGS. 13A-13E show in vivo time-dependent uptake from sciatic nerve and muscle post-iv injection of 17 AA cyclic peptide-dye conjugates using optical imaging. 17 AA cyclic peptide-dye conjugates (Cy5 labeled) were injected intravenously (400 nmole) into the tail veins of nude mouse prior to surgical exposure and imaging of sciatic nerves and adjacent muscle using a Zeiss Lumar stereomicroscope (0.8× objective) with fluorescence imaging capabilities. Pre- and serial post injection (p.i.) images (bright field, fluorescent) were acquired at 8 times points from 15 min to 240 min p.i. Bars indicate mean+/−standard deviation. N=5 per group. Each replicate is from one biological experiment, quantified with five independent fields of view. Region of interest (ROI) analysis was performed over nerve and muscle regions to assess time-dependent signal changes. FIGS. 13A-13E show the absolute and relative fluorescence signal (e.g., percentage of the initial fluorescence signal acquired at 15 min p.i.) of nerves (FIGS. 13A and […]) and adjacent muscle (FIGS. 13B and 13D), respectively.\nFIGS. 14A and 14B show in vivo time-dependent uptake from sciatic nerve and muscle post-iv injection of 17 AA linear peptide-dye conjugates using optical imaging. 17 AA linear peptide-dye conjugates (Cy5 labeled) were injected intravenously (150 nmole) into the tail veins of nude mouse prior to surgical exposure and imaging of sciatic nerves and adjacent muscle using a Zeiss Lumar stereomicroscope (0.8× objective) with fluorescence imaging capabilities. Pre- and serial post injection (p.i.) images (bright field, fluorescent) were acquired at 6 times points (15 min-150 min) p.i. Bars indicate mean+/−standard deviation. N=5 per group.\nFIGS. 16A-16E show in vivo time-dependent uptake from sciatic nerve and muscle post-iv injection of 17 AA cyclic peptide-dye conjugates using optical imaging. 17 AA cyclic peptide-dye conjugates (Cy5 labeled) were injected intravenously (150 nmole) into the tail veins of nude mouse prior to surgical exposure and imaging of sciatic nerves and adjacent muscle using a Zeiss Lumar stereomicroscope (0.8× objective) with fluorescence imaging capabilities. Pre- and serial post injection (p.i.) images (bright field, fluorescent) were acquired at 6 time points (15 min-150 min) p.i. Bars indicate mean+/−standard deviation. N=5 per group. Each replicate is from one biological experiment, quantified with five independent fields of view. Region of interest (ROI) analysis was performed over nerve and muscle regions to assess time-dependent signal changes. FIGS. 16A-16D show the absolute and relative fluorescence signal (percentage of the initial fluorescence signal acquired at 15 min p.i.) of nerves (FIGS. 16A and 16C) and adjacent muscle (FIGS. 16B and 16D), respectively."}}, "note": "Ends that are not written are not given here."}
{"molecule": "CCN1/C(=C/C=C/C=C/C2=[N+](CCCCCC(=O)O)c3ccc(S(=O)(=O)O)cc3C2(C)C)C(C)(C)c2cc(S(=O)(=O)[O-])ccc21", "note": "[Cy5]", "values": [{"measurement": "# of Cy5 per particles", "setting": "[1]", "value": 1}, {"measurement": "Hydrodynamic Diameter", "setting": "[1]", "value": 1.4, "unit": "nm"}, {"measurement": "PCS Brightness", "setting": "[1]", "value": 9.2, "unit": "kHz"}, {"measurement": "Quantum Enhancement", "setting": "[1]", "value": 1}]}
{"molecule": "Ac-SHSNTQTLAKAPEHTGC (also: Cy5 label, site not given here) [LinearNBP-Cy5]", "values": [{"measurement": "# of Cy5 per particles", "setting": "[1]", "value": 1}, {"measurement": "# of NBP per particles", "setting": "[1]", "value": 1}, {"measurement": "Hydrodynamic Diameter", "setting": "[1]", "value": 2.4, "unit": "nm"}, {"measurement": "PCS Brightness", "setting": "[1]", "value": 8.9, "unit": "kHz"}, {"measurement": "Quantum Enhancement", "setting": "[1]", "value": 0.9}, {"measurement": "fluorescence signal at 30 min as percentage of post-injection/initial signal", "setting": "[2]; listed as 17 AA linear peptide-dye conjugates", "value": "about 15%"}, {"measurement": "fluorescence signal at 30 min as percentage of post-injection/initial signal", "setting": "[2]; listed as linear peptide", "value": 10, "unit": "%"}, {"measurement": "duration of detectable signal after administration (in words)", "setting": "[2]; iv", "value": "barely perceptible thereafter"}, {"measurement": "nerve-to-muscle or contrast ratios over time (in words)", "setting": "[2]; iv, listed as linear peptide", "value": "does not demonstrate as high ratios"}, {"measurement": "nerve-to-muscle or contrast ratios over time (in words)", "setting": "[2]; iv, listed as linear peptide-dye conjugate", "value": "roughly equivalent over the first 30 min"}]}
